Data from patent US5401734A, “Cephem compounds” (Fujisawa Phamaceutical Co., Ltd., priority 1988, dated 1995).
Values after ≈ are worked out from the molar mass of the structure shown.

Tested on: P. aeruginosa 26
Assay: In vitro antibacterial activity, MIC by the two-fold agar-plate dilution method
Type: cell-based
Conditions: Pseudomonas aeruginosa, heart infusion agar, 37° C., 20 hours, overnight culture 10^8 viable cells per ml, read-out: MIC (minimal inhibitory concentration)
Description: Now in order to show the utility of the object compound (I), the test data on MIC (minimal inhibitory concentration) of representative compound of this invention are shown in the following.
In vitro antibacterial activity was determined by the two-fold agar-plate dilution method as described below.
One loopful of an overnight culture of each test strain in Trypticase-soy broth (10^8 viable cells per ml) was streaked on heart infusion agar (HI-agar)containing graded concentrations of representative test compound, and the minimal inhibitory concentration (MIC) was expressed in terms of μg/ml after incubation at 37° C. for 20 hours.

| MIC [µg/mL] | SMILES |
| --- | --- |
| ≤ 0.025 | CC(C)(O/N=C(\C(=O)N[C@@H]1C(=O)N2C(C(=O)[O-])=C(C[N+](C)(C)Cc3cc(=O)c(O)c[nH]3)CS[C@H]12)c1nsc(N)n1)C(=O)O [Test compound (1), 7β-[2-(5-Amino-1,2,4-thiadiazol-3-yl)-2-(1-carboxy-1-methylethoxyimino)acetamido]-3-[N,N-dimethyl-N-{(5-hydroxy-4-oxo-1,4-dihydropyridin-2-yl)methyl}ammonio]methyl-3-cephem-4-carboxylate (syn isomer)] |
| 0.05 (≈ 0.0789 µM) | CO/N=C(\C(=O)N[C@@H]1C(=O)N2C(C(=O)[O-])=C(C[N+]3(C)CCN(C(=O)c4cc(O)c(O)cn4)CC3)CS[C@H]12)c1nsc(N)n1 [Test compound (2), 7β-[2-(5-Amino-1,2,4-thiadiazol-3-yl)-2-methoxyiminoacetamido]-3-[1-methyl-4-(4,5-dihydroxy-2-pyridylcarbonyl)-1-piperazinio]methyl-3-cephem-4-carboxylate (syn isomer)] |
